Several values for one entry are separate records, joined by “and”; a condition that tells them apart may be missing. Equal values may be shown once.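 Dose response: 5 concentrations. Exposure: 48 h. Format: 96-well plates. Endpoint: linear interpolation; highest concentration if not reached. GI50 marks 50% less growth. TGI denotes the concentration required for complete inhibition of growth.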
Tests used:
Experiment in all cases: growth of human tumour cells (NCI), 48 h
A549 NSCLC = tested on: A549 NSCLC
CAKI-1 renal = tested on: CAKI-1 renal
CCRF-CEM leukemia = tested on: CCRF-CEM leukemia
EKVX NSCLC = tested on: EKVX NSCLC
HCT-116 colon = tested on: HCT-116 colon
HOP-62 NSCLC = tested on: HOP-62 NSCLC
KM12 colon = tested on: KM12 colon
MOLT-4 leukemia = tested on: MOLT-4 leukemia
NCI-H226 lung = tested on: NCI-H226 lung
NCI-H522 lung = tested on: NCI-H522 lung

Row | SMILES | GI50 (A549 NSCLC) [µM] | TGI (A549 NSCLC) [µM] | GI50 (CAKI-1 renal) [µM] | TGI (CAKI-1 renal) [µM] | GI50 (CCRF-CEM leukemia) [µM] | TGI (CCRF-CEM leukemia) | GI50 (EKVX NSCLC) [µM] | TGI (EKVX NSCLC) [µM] | GI50 (HCT-116 colon) [µM] | TGI (HCT-116 colon) [µM] | GI50 (HOP-62 NSCLC) [µM] | TGI (HOP-62 NSCLC) [µM] | GI50 (KM12 colon) [µM] | TGI (KM12 colon) [µM] | GI50 (MOLT-4 leukemia) [µM] | TGI (MOLT-4 leukemia) [µM] | GI50 (NCI-H226 lung) [µM] | TGI (NCI-H226 lung) [µM] | GI50 (NCI-H522 lung) [µM] | TGI (NCI-H522 lung)
1 | Oc1cc(N2CC2)c(O)cc1N1CC1 | 0.783 | 10.7 | 0.086 | 0.332 | 0.556 | > 45 µM | 2.62 | 9.87 | 0.615 | 10.8 | 0.632 | 2.99 | 1.63 | 4.44 | 0.591 | 7.89 | 1.63 | 4.59 | 0.287 | 1.48 µM
2 | COC(=O)C12CCC(C)(C)CC1C1=CCC3C4(C)CC(O)C(O)C(C)(C(=O)OC)C4CCC3(C)C1(CO)CC2 (centres undefined) |  | 29 |  | 27.8 |  | 80.2 µM |  | 44.1 |  | 27.4 |  | 32.2 |  | 22.3 |  | 34.4 |  | 38.5 |  | 35.2 µM
3 | CC(=O)c1ccccc1NC(=O)C(=O)C(C(=O)c1ccc2ccccc2c1)C1OC(=O)c2ccccc21 (centres undefined) |  | 70.5 |  | 48.1 |  | 40 µM |  | > 100 |  | 29.6 |  | 28.4 |  | 52.2 |  | > 100 |  | 7.86 |  | 29.2 µM
4 | O=C(Cc1ccccc1[N+](=O)[O-])C(CO)c1ccccc1[N+](=O)[O-] (centres undefined) |  | > 100 |  | > 100 |  | > 100 µM |  | > 100 |  | > 100 |  | > 100 |  | > 100 |  | > 100 |  | > 100 |  | 70.5 µM
5 | O=C(/C=C/C12c3ccccc3C(c3ccccc31)C1C(=O)N(c3ccc(Cl)cc3)C(=O)C12)c1ccccn1 (centres undefined) | 0.288 | 0.989 | 1.07 | 4.95 | 0.29 | > 100 µM | 0.381 | 2.38 | 0.183 | 0.423 | 0.405 | 2.22 | 0.345 |  | 0.322 | > 100 | 0.258 | 0.878 | 0.26 | 1.01 µM
6 | C/C(=N\NC(=S)N1CCN(c2ccccn2)CC1)c1ccccn1 | 0.0464 | 13.7 | 0.301 | 15.5 |  | 0.878 µM and 0.317 µM | 0.000138 |  |  | 13.8 | 0.0475 | 12.7 | 0.0219 | 14.1 |  | 2.66 | 0.236 | 7.33 | 0.179 | 0.71 µM and 2.07 µM
7 | Cc1cc(=O)[nH]c(CNC(=O)c2ccc3ccccc3c2)n1 |  | > 100 |  | > 100 |  | > 100 µM |  | > 100 |  | > 100 |  | > 100 |  | > 100 |  | > 100 |  | > 100 |  | > 100 µM
8 | CC(=O)OCC12CN(C#N)C3C4COC(CC41)C1(C(=O)N(C)c4ccccc41)C32 (centres undefined) |  | > 100 |  | 82.9 |  | 53 µM |  | 88.9 |  | 40.7 |  | 58.6 |  | > 100 |  | > 100 |  | 49.5 |  | 24.7 µM
9 | CCC12CCCN(Cc3ccccc3)C1c1c(n(C)c3ccccc13)C(CO)C2 (centres undefined) |  | > 257 |  | > 257 |  | > 257 µM |  | 245 |  | 53.6 |  | 73.6 |  | 89.4 |  | 149 |  | 104 |  | 66.7 µM
10 | [O-]/N=[N+](/[O-])C1CCCCC1=[N+]1CCOCC1 (centres undefined) |  | > 100 |  | > 100 |  | > 100 µM |  | > 100 |  | > 100 |  | > 100 |  | > 100 |  | > 100 |  | > 100 |  | > 100 µM
11 | COC(=O)[C@H](CC(C)C)NC(=O)[C@H](Cc1ccccc1)N1CC2C=CC1C2 (some centres undefined) |  | > 100 |  | > 100 |  | > 100 µM |  | > 100 |  |  |  | > 100 |  | > 100 |  | > 100 |  | > 100 |  | > 100 µM
12 | N#CC(C#N)=NNc1ccc2cn[nH]c2c1 |  | > 100 |  | 96.4 |  | 55 µM |  | > 100 |  | 44.7 |  | > 100 |  | > 100 |  | 54.2 |  | > 100 |  | 34.8 µM
13 | Cc1ccc(C)c2c1C(=O)N(c1ccc(F)cc1F)C2=O | > 100 | > 100 | > 100 | > 100 | > 100 | > 100 µM | > 100 | > 100 | > 100 | > 100 | > 100 | > 100 | > 100 | > 100 | > 100 | > 100 | > 100 | > 100 | > 100 | > 100 µM
14 | C[C@@H](N)COc1ccc(-c2cnc3ccc(N[C@H](C)c4cccc(F)c4)nn23)cc1 | 1.53 | 3.82 | 2.87 | 11 | 2.68 | 7.88 µM | 2.71 | 12.6 | 1.46 | 3.07 | 2.29 | 11.9 |  | 1.5 | 2 | 6.44 | 1.62 | 7.31 | 1.42 | 3.17 µM
15 | O=C(CN1CCN(Cc2ccccc2Cl)CC1)NC1CC(=O)c2c(Br)sc(Br)c21 (centres undefined) | 41.9 | > 100 | 19.9 | 37.6 | 20.7 | 54.8 µM | 21.7 | 42 | 17.3 | 32.9 |  |  | 20.9 | 40.6 | 27.1 | 85.3 | 23.9 | 91.8 | 2 | 5.06 µM
16 | COC(=O)C1=COC2OC3C(C(C)O)C(=O)OC34C=CC1C24 (centres undefined) |  | > 100 |  | > 100 |  | 55.4 µM |  | > 100 |  | > 100 |  |  |  | > 100 |  | > 100 |  | > 100 |  | 30.5 µM
17 | CC(C)(C)N/N=C(\C(=O)Nc1cccc(Cl)c1)C1C(=O)Nc2ccccc2S1=O (centres undefined) |  | > 100 |  | > 100 |  | > 100 µM |  | > 100 |  |  |  | > 100 |  | > 100 |  | > 100 |  | > 100 |  | > 100 µM

— PubChem BioAssay (NCI)
